Measurements published in the NIST ThermoML archive (doi:10.1021/je5009729).
Numbers after ± are expanded uncertainties.

Experiments:
[1] = for vapor or sublimation pressure: Gas chromatography; for Normal melting temperature / Triple point temperature: DTA
[2] = Molar enthalpy of transition or fusion; conditions: DSC

CCCCCC/C=C\CCCCCCCC(=O)O [cis-9-hexadecenoic acid]
vapor or sublimation pressure ([1]; 298.15 K, Liquid): 6.9e-08 kPa

CCCCCCCCCCC/C=C\CCCCC(=O)O [(Z)-6-octadecenoic acid]
vapor or sublimation pressure ([1]; 298.15 K, Liquid): 1.13e-08 kPa

CCCCCCCC/C=C\CCCCCCCCCC(=O)O [(11Z)-eicosenoic acid]
vapor or sublimation pressure ([1]; 298.15 K, Liquid): 1.18e-09 kPa

CCCCCCCCCCCCCCCCCCCCCCCCCC(=O)O [hexacosanoic acid]
vapor or sublimation pressure ([1]; 298.15 K, Crystal): 8e-15 kPa | vapor or sublimation pressure ([1]; 298.15 K, Liquid): 2.5e-12 kPa | Normal melting temperature ([1]; Crystal 1): 85.7 ± 0.7 °C | Triple point temperature ([1]; Crystal 2): 354.3 ± 0.5 K | Molar enthalpy of transition or fusion ([2]; Crystal 2): 21.2 ± 0.621 kcal/mol

CCCCCCCCCCCCCCCCCCCCCCCC(=O)O [lignoceric acid]
vapor or sublimation pressure ([1]; 298 K, Crystal): 4e-14 kPa | vapor or sublimation pressure ([1]; 298.15 K, Liquid): 1.1e-11 kPa | Normal melting temperature ([1]; Crystal 1): 83.4 ± 0.5 °C | Triple point temperature ([1]; Crystal 2): 351 ± 1 K | Triple point temperature ([1]; Crystal 3): 347 ± 1 K | Molar enthalpy of transition or fusion ([2]; Crystal 1): 20.2 ± 0.454 kcal/mol | Molar enthalpy of transition or fusion ([2]; Crystal 3): 1.18 ± 0.0621 kcal/mol

CCCCCCCC/C=C\CCCCCCCCCCCCCC(=O)O [(Z)-tetracos-15-enoic acid]
vapor or sublimation pressure ([1]; 298 K, Crystal): 2.7e-12 kPa | vapor or sublimation pressure ([1]; 298.15 K, Liquid): 1e-11 kPa | Normal melting temperature ([1]; Crystal): 42 ± 1 °C | Molar enthalpy of transition or fusion ([2]; Crystal): 14.4 ± 0.359 kcal/mol

CCCCCC=CCC=CCC=CCC=CCCCC(=O)O [5,8,11,14-eicosatetraenoic acid]
vapor or sublimation pressure ([1]; 298.15 K, Liquid): 6.5e-10 kPa

CCCCCCCC/C=C\CCCCCCCC(=O)O [(Z)-9-octadecenoic acid]
vapor or sublimation pressure ([1]; 298.15 K, Liquid): 1.01e-08 kPa

CC/C=C\C/C=C\C/C=C\C/C=C\C/C=C\C/C=C\CCC(=O)O [cis-4,7,10,13,16,19-docosahexaenoic acid]
vapor or sublimation pressure ([1]; 298.15 K, Liquid): 2.2e-11 kPa
